Laboratory results taken from PubChem BioAssay AID1963959 (Molecular Pharmacology Branch, DTP, NCI, 2024).

Tested on: T-47D spheroids with HUVEC/MSC, viability
Assay: Anticancer human tumor T-47D cell line growth inhibition [PI3K];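 also: spheroids exposed to agents for seven days before reading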;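 as to viability, T/C: percent of DMSO vehicle control luminescence so 100% = untreated growth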
Conditions: for viability, T/C: stronger effect = lower value
Text: Combinatorial screen of targeted agents with the PI3K inhibitors inavolisib, alpelisib, duvelisib, and copanlisib in multi-cell type tumor spheroids
A high-throughput screen of multi-cell type tumor spheroids was designed to identify active combinations of targeted small molecules and PI3K pathway inhibitors. Complex spheroids include a stromal component modeled by human endothelial cells (HUVEC) and fibroblasts modeled by human mesenchymal stem cells (MSCs). The concentration ranges selected for each drug and investigational agent were based upon clinically achievable concentrations if the clinical Cmax of the agent was known.
Compounds. The drugs and investigational agents: inavolisib (NSC800729), alpelisib (NSC765974), duvelisib (NSC772469), copanlisib (NSC816437), ipatasertib (NSC767898), afuresertib (NSC778305), talazoparib (NSC767125), sapanisertib (NSC764658), selumetinib (NSC741078), tovorafenib (DAY101, NSC766906), vemurafenib (NSC761431), ravoxertinib (NSC781343), sotorasib (NSC818433), MRTX1133 (NSC 836407), abemaciclib (NSC 768073), palbociclib (NSC758247), venetoclax (NSC 766270), SY5609 (NSC837396), enzalutamide (NSC755605), and darolutamide (NSC825331), were obtained from the National Cancer Institute (NCI) Developmental Therapeutics Program Chemical Repository. The FDA-approved anticancer drug set is available from the NCI Developmental Therapeutics Program. […] The stock solutions were prepared in dimethyl sulfoxide (DMSO, Sigma-Aldrich, St. Louis, MO, cat. D2650) at 800-fold the tested concentration and stored at -70 degrees C prior to their use. All drugs and investigational agents were tested over a range starting from a high concentration at or near the clinical Cmax and decreasing in half-log increments. If the clinical Cmax for an agent had not been determined, the highest concentration tested was 10 microM.
Cell Culture. All cells were maintained in an incubator at 37 degrees C and 5% CO2 with 95% humidity. The PDC lines were cultured according to standard operating procedures established by the NCI PDMR (https://pdmr.cancer.gov/sops/default.htm). All PDCs were thawed and cultured in Matrigel-coated flasks prepared with a working solution of 1X Ham's F-12 nutrient mix, without supplementation (Invitrogen, Waltham, MA, cat. 11765054), 100 U/mL penicillin-streptomycin (Invitrogen, cat. 15140122), and 2.5% Matrigel (Corning Inc., Corning, NY, cat. 354248) for the first three passages. The 354836-022-R-J1-PDC, 475296-252-R-J1-PDC, and 997726-040-R-J2-PDC lines were cultured in 6A media, which includes advanced DMEM/F-12 (Thermo Fisher Scientific, cat. 12634028), 10 mM HEPES (Thermo Fisher Scientific, cat. 15630080), 1X GlutaMAX supplement (Thermo Fisher Scientific, cat. 35050061), 0.1 mg/mL primocin (InvivoGen, San Diego, CA, cat. ant-pm-2), 10% defined fetal bovine serum, heat inactivated (HyClone Laboratories Inc., Logan, UT, cat. SH30070.03HI), 50% L-WRN conditioned media (ATCC, cat. CRL-3276), 1.25 mM N-Acetyl-L-cysteine (Sigma-Aldrich, cat. A9165), 10 mM nicotinamide (Sigma-Aldrich, cat. N0636), 1X B-27 supplement (Thermo Fisher Scientific, cat. 17504044), 1X N-2 supplement (Thermo Fisher Scientific, cat. 17502048), and 10 microM Y-27632 dihydrochloride (Tocris Bioscience, Bristol, United Kingdom, cat. 1254). The 624824-186-R-J2-PDC line was cultured in 6C/Colon 1B media, which includes all 6A media components plus 50 ng/mL human EGF recombinant protein (Thermo Fisher Scientific, cat. PHG0311). […]

[1] = curve of first compound, second compound 0.0316 µM
[2] = curve of first compound, second compound 0.1 µM
[3] = curve of first compound, second compound 0.316 µM
[4] = curve of first compound, second compound 1 µM
[5] = curve of first compound, second compound 3.16 µM
[6] = curve of first compound, second compound 10 µM
[7] = second compound 0.0316 µM, first compound 0.0316 µM
[8] = second compound 0.0316 µM, first compound 0.1 µM
[9] = second compound 0.1 µM, first compound 0.0316 µM
[10] = second compound 0.1 µM, first compound 0.1 µM
[11] = second compound 0.316 µM, first compound 0.0316 µM
[12] = second compound 0.316 µM, first compound 0.1 µM
[13] = second compound 1 µM, first compound 0.0316 µM
[14] = second compound 1 µM, first compound 0.1 µM
[15] = second compound 3.16 µM, first compound 0.0316 µM
[16] = second compound 3.16 µM, first compound 0.1 µM
[17] = second compound 10 µM, first compound 0.0316 µM
[18] = second compound 10 µM, first compound 0.1 µM

CNC(=O)c1ccc(N2C(=S)N(c3ccc(C#N)c(C(F)(F)F)c3)C(=O)C2(C)C)cc1F + Cc1nc(NC(=O)N2CCCC2C(N)=O)sc1-c1ccnc(C(C)(C)C(F)(F)F)c1
IC50 [1]: > 10000 nM
IC50 [2]: > 10000 nM
IC50 [3]: > 10000 nM
IC50 [4]: > 10000 nM
IC50 [5]: > 10000 nM
IC50 [6]: < 31.6 nM
viability, T/C [7]: 113%
viability, T/C [8]: 82%
viability, T/C (second compound 0.0316 µM, first compound 0.316 µM): 97%
viability, T/C (second compound 0.0316 µM, first compound 1 µM): 87.1%
viability, T/C (second compound 0.0316 µM, first compound 3.16 µM): 91.1%
viability, T/C (second compound 0.0316 µM, first compound 10 µM): 87.9%
viability, T/C [9]: 111%
viability, T/C [10]: 96.5%
viability, T/C (second compound 0.1 µM, first compound 0.316 µM): 93.2%
viability, T/C (second compound 0.1 µM, first compound 1 µM): 88.4%
viability, T/C (second compound 0.1 µM, first compound 3.16 µM): 97.7%
viability, T/C (second compound 0.1 µM, first compound 10 µM): 84.9%
viability, T/C [11]: 91.8%
viability, T/C [12]: 85%
viability, T/C (second compound 0.316 µM, first compound 0.316 µM): 94.3%
viability, T/C (second compound 0.316 µM, first compound 1 µM): 85.9%
viability, T/C (second compound 0.316 µM, first compound 3.16 µM): 101%
viability, T/C (second compound 0.316 µM, first compound 10 µM): 88.5%
viability, T/C [13]: 82.9%
viability, T/C [14]: 96.4%
viability, T/C (second compound 1 µM, first compound 0.316 µM): 85.1%
viability, T/C (second compound 1 µM, first compound 1 µM): 78.3%
viability, T/C (second compound 1 µM, first compound 3.16 µM): 91.9%
viability, T/C (second compound 1 µM, first compound 10 µM): 66.8%
viability, T/C [15]: 72%
viability, T/C [16]: 76%
viability, T/C (second compound 3.16 µM, first compound 0.316 µM): 72.2%
viability, T/C (second compound 3.16 µM, first compound 1 µM): 69.5%
viability, T/C (second compound 3.16 µM, first compound 3.16 µM): 62.3%
viability, T/C (second compound 3.16 µM, first compound 10 µM): 58%
viability, T/C [17]: 43.2%
viability, T/C [18]: 41.2%
viability, T/C (second compound 10 µM, first compound 0.316 µM): 40.5%
viability, T/C (second compound 10 µM, first compound 1 µM): 44.5%
viability, T/C (second compound 10 µM, first compound 3.16 µM): 33.7%
viability, T/C (second compound 10 µM, first compound 10 µM): 30.4%

Cn1ncnc1[C@H]1c2n[nH]c(=O)c3cc(F)cc(c23)N[C@@H]1c1ccc(F)cc1 + CC(Nc1ncnc2nc[nH]c12)c1cc2cccc(Cl)c2c(=O)n1-c1ccccc1
IC50 [1]: > 100 nM
IC50 [2]: > 100 nM
IC50 [3]: > 100 nM
IC50 [4]: > 100 nM
IC50 [5]: > 100 nM
IC50 [6]: > 100 nM
viability, T/C (second compound 0.0316 µM, first compound 0.000316 µM): 86.8%
viability, T/C (second compound 0.0316 µM, first compound 0.001 µM): 92.8%
viability, T/C (second compound 0.0316 µM, first compound 0.00316 µM): 79.7%
viability, T/C (second compound 0.0316 µM, first compound 0.01 µM): 94.8%
viability, T/C [7]: 99.6%
viability, T/C [8]: 80.8%
viability, T/C (second compound 0.1 µM, first compound 0.000316 µM): 110%
viability, T/C (second compound 0.1 µM, first compound 0.001 µM): 82.2%
viability, T/C (second compound 0.1 µM, first compound 0.00316 µM): 99.3%
viability, T/C (second compound 0.1 µM, first compound 0.01 µM): 91.5%
viability, T/C [9]: 89.5%
viability, T/C [10]: 93.3%
viability, T/C (second compound 0.316 µM, first compound 0.000316 µM): 98.1%
viability, T/C (second compound 0.316 µM, first compound 0.001 µM): 82.9%
viability, T/C (second compound 0.316 µM, first compound 0.00316 µM): 90.6%
viability, T/C (second compound 0.316 µM, first compound 0.01 µM): 100%
viability, T/C [11]: 85.6%
viability, T/C [12]: 92.1%
viability, T/C (second compound 1 µM, first compound 0.000316 µM): 98.3%
viability, T/C (second compound 1 µM, first compound 0.001 µM): 89.6%
viability, T/C (second compound 1 µM, first compound 0.00316 µM): 102%
viability, T/C (second compound 1 µM, first compound 0.01 µM): 74.5%
viability, T/C [13]: 86.5%
viability, T/C [14]: 92.6%
viability, T/C (second compound 3.16 µM, first compound 0.000316 µM): 86.3%
viability, T/C (second compound 3.16 µM, first compound 0.001 µM): 90.2%
viability, T/C (second compound 3.16 µM, first compound 0.00316 µM): 88.6%
viability, T/C (second compound 3.16 µM, first compound 0.01 µM): 83.2%
viability, T/C [15]: 103%
viability, T/C [16]: 96.3%
viability, T/C (second compound 10 µM, first compound 0.000316 µM): 80.7%
viability, T/C (second compound 10 µM, first compound 0.001 µM): 81.7%
viability, T/C (second compound 10 µM, first compound 0.00316 µM): 83.4%
viability, T/C (second compound 10 µM, first compound 0.01 µM): 92.3%
viability, T/C [17]: 102%
viability, T/C [18]: 83.7%

CC(Nc1ccc2c(c1)OCCn1cc(N3C(=O)OCC3C(F)F)nc1-2)C(N)=O (centres undefined)
viability, T/C (compound 0.00316 µM): 95.1% [middle of 8 runs]
viability, T/C (compound 0.0316 µM): 93.7% [middle of 8 runs]
viability, T/C (compound 0.316 µM): 79.9% [middle of 8 runs]
viability, T/C (compound 1 µM): 57.9% [middle of 8 runs]
IC50 (compound alone, run of 04/24/2023): > 1000 nM
